{"source": "patent US6518270B1", "about": "“Heterocyclic compounds for inhibition of gastric acid secretion, processes for their preparation and pharmaceutical compositions thereof” (AstraZeneca AB, priority 1997, dated 2003)", "biological_target": "T1, H+,K+-ATPase", "T1 construct": "from tissue", "T1 sequence (P20648 whole entry)": "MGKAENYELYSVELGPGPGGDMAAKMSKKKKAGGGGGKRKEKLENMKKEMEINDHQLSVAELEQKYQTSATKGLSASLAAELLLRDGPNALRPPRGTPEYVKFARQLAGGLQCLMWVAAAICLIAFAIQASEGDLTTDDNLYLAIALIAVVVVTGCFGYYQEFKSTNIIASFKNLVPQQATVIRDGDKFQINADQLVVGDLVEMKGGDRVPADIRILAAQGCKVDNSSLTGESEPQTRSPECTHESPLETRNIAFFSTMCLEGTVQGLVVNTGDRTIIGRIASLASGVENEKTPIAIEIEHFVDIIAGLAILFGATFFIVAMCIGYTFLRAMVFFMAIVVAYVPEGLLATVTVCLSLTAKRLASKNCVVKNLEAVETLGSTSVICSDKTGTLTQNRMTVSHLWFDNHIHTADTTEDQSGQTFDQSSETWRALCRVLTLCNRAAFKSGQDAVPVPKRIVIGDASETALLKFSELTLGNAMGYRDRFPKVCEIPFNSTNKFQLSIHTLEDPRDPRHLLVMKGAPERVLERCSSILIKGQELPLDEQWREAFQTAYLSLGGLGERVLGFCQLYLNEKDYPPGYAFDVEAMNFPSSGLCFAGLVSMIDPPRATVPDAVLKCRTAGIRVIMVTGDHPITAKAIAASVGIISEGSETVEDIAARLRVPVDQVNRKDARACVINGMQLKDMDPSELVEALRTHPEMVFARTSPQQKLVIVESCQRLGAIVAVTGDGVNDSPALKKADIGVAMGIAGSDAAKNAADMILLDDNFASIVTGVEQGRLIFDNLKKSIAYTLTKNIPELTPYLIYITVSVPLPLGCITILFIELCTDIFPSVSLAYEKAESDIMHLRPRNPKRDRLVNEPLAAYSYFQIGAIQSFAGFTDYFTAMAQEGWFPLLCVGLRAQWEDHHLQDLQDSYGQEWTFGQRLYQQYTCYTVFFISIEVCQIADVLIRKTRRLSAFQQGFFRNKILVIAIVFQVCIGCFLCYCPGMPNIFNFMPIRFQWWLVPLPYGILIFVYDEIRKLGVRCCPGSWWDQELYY", "T1 sequence (P51164 whole entry partner)": "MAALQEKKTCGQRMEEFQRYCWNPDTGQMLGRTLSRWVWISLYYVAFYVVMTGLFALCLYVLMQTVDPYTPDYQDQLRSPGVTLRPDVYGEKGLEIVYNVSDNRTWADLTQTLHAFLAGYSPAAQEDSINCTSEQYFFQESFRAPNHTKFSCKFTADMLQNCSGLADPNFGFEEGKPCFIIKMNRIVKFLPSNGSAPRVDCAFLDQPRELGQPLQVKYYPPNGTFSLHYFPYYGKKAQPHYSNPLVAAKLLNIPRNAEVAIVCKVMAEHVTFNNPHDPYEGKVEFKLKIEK", "assay": "Determination of H+,K+-ATPase activity", "format": "biochemical", "conditions": "membrane vesicles, 15 min at +37° C., pH 7.4, 10 mM KCl, 2 mM ATP; release of inorganic phosphate", "description": "Determination of H^+,K^+-ATPase Activity\nMembrane vesicles (2.5 to 5 μg) were incubated for 15 min at +37° C. in 18 mM Pipes/Tris buffer pH 7.4 containing 2 mM MgCl2, 10 mM KCl and 2 mM ATP. The ATPase activity was estimated as release of inorganic phosphate from ATP, as described by LeBel et al. (1978) Anal. Biochem. 85, 86-89."}
{"smiles": "Cc1cccc(C)c1CNc1nccn2c(C)c(C)nc12", "note": "[Example 1, 2,3-dimethyl-8-(2,6-dimethylbenzylamino)imidazo [1,2-a]pyrazine]", "values": [{"measurement": "IC50", "result": 160, "unit": "nM"}]}
{"smiles": "Cc1cccc(C)c1COc1nccn2c(C)c(C)nc12", "note": "[Example 2, 2,3-dimethyl-8-(2,6-dimethylbenzyloxy)imidazo[1,2-a]pyrazine]", "values": [{"measurement": "IC50", "result": 2780, "unit": "nM"}]}
